Here are results for 22 compounds from publication PMC6385310 (Scientific Reports, 2019).

One series in a line: in vitro. As to conditions: African green monkey.
A further series deals with VEEV TC83. Briefly: microbe, parasite or virus in culture. The class given is cell-based. As to conditions: Venezuelan equine encephalitis virus, Vero, 16 h, read-out: Titre reduction (%).
The test system of series [1] is nuclear import of VEEV CP-GFP fusion protein. Briefly: cells. The class given is cell-based. Particulars: for inhibition of nuclear import of CP-GFP (FRAP, Fn(rec)max): 200 µM; for inhibition at 200 µM: Venezuelan equine encephalitis virus, HeLa, 2 h, read-out: inhibition of nuclear import of CP-GFP (FRAP, Fn(rec)max).
Series [2] relates to VEEV TC-83 virus expressing a luciferase reporter gene (TC-83-luc). Briefly: microbe, parasite or virus in culture. The format is cell-based, Venezuelan equine encephalitis virus.
Series [3] relates to VEEV CP nuclear accumulation. The class given is cell-based, Venezuelan equine encephalitis virus.
Series [4] relates to Vero cells. Particulars: cited from earlier work.
Series [5] has as its system VEEV TC-83 virus expressing a luciferase reporter gene (TC-83-luc). As to conditions: read-out: anti-VEEV activity EC50; cited from earlier work.
In series [6] the test system is Vero cells.
The mark [7] stands for this setting: Venezuelan equine encephalitis virus, Vero, read-out: EC50, concentration yielding 50% inhibition of viral replication.
[8] abbreviates: read-out: EC50, concentration yielding 50% inhibition of viral replication.
The mark [9] stands for this setting: Venezuelan equine encephalitis virus, Vero, read-out: EC50, µM (cells printed ND).

Values joined by “and” are separate entries in the source; they are usually repeats but may differ in a detail not shown here. Equal values may be shown once. Read-outs that look alike come from different tables or passages of the source.

Take `COc1ccc(C#C[C@]2(O)CC[C@H]3[C@@H]4CC[C@@]5(O)CC6(CCC5=C4[C@@H](c4ccc(N(C)C)cc4)C[C@@]32C)OCCO6)cc1` [Compound 37]: in the series “in vitro”, the CC50 is > 100 µM. In addition, in the series on VEEV TC83, the inhibition at 10 µM was 67.1 ± 12.2%. The “inhibition of nuclear import of CP-GFP (FRAP, Fn(rec)max)” value in series [1] was “did not significantly alter CP nuclear import dynamics”.

As for `CC(C)[Si](C#C[C@]1(O)CC[C@H]2[C@@H]3CC[C@@]4(O)CC5(CCC4=C3[C@@H](c3ccc(N(C)C)cc3)C[C@@]21C)OCCO5)(C(C)C)C(C)C` [Compound 32], the CC50 in the series “in vitro” is > 100 µM. Besides, the inhibition at 10 µM in the series on VEEV TC83 came out at 89.7 ± 4.6%. Further, in series [2], the “SI, selectivity index (CC50/EC50)” value is 22.0 ± 6.1 >100 >4.5. In addition, the EC50 in series [2] (setting [7]) amounted to 22 µM.

Turning to `COc1ccc(C2C[C@@]3(C)[C@@H](CC[C@@]3(O)C#C[Si](C)(C)C)[C@@H]3CCC4=CC(=O)CCC4=C23)cc1` (stereo partly drawn) [Compound 51], the CC50 in the series “in vitro” is > 100 µM. In addition, in series [2], the “SI, selectivity index (CC50/EC50)” value is reported as >4.5. The EC50 in series [2] (setting [7]) is 22.5 ± 2.4 µM.

`CN(C)c1ccc([C@H]2C[C@@]3(C)[C@@H](CC[C@@]3(O)C#CC(F)(F)F)[C@@H]3CC[C@@]4(O)CC5(CCC4=C32)OCCO5)cc1` [Compound 8]: in the series “in vitro”, the CC50 is > 100 µM. In addition, the “SI, selectivity index (CC50/EC50)” value in series [2] is reported as 27.6 ± 5.1 >100 >3.6. Besides, the EC50 in series [2] (setting [7]) is 27.6 µM.

Turning to `CC[Si](C#C[C@]1(O)CC[C@H]2[C@@H]3CCC4=CC(=O)CCC4=C3[C@@H](c3ccc(N(C)C)cc3)C[C@@]21C)(CC)CC` [Compound 34], in the series “in vitro”, the CC50 was > 100 µM. For the same compound, the inhibition at 10 µM in the series on VEEV TC83 came to 95.8 ± 1.9%. Besides, in series [1], the inhibition at 200 µM is ~30%.

As to `COc1ccc(C#C[C@]2(O)CC[C@H]3[C@@H]4CCC5=CC(=O)CCC5=C4[C@@H](c4ccc(N(C)C)cc4)C[C@@]32C)cc1` [Compound 39], the CC50 in “in vitro” is > 100 µM. The inhibition at 10 µM with VEEV TC83 was 47.4 ± 21.4%. Also, the “inhibition of nuclear import of CP-GFP (FRAP, Fn(rec)max)” value in series [1] was “did not significantly alter CP nuclear import dynamics”. Besides, the EC50 in series [2] (setting [7]) is < 10 µM; in series [2] (setting [8]), 5.23 µM and 5.2 µM.

In the case of `C[C@]12C[C@H](c3ccccc3)C3=C4CCC5(C[C@]4(O)CC[C@H]3[C@@H]1CC[C@@]2(O)C#C[Si](C)(C)C)OCCO5` [Compound 45], the CC50 in the series “in vitro” is > 100 µM. Besides, in the series on VEEV TC83, the inhibition at 10 µM was 95.4 ± 4.1%. For the same compound, in series [2], the “SI, selectivity index (CC50/EC50)” value was >38.7. For the same compound, in series [2] (setting [7]), the EC50 is 2.6 ± 0.4 µM.

`C[C@]12C[C@H](c3ccc(-c4ccccc4)cc3)C3=C4CCC(=O)C=C4CC[C@H]3[C@@H]1CC[C@@]2(O)C#C[Si](C)(C)C` [Compound 53]: the CC50 in “in vitro” is > 100 µM. In addition, the inhibition at 10 µM in the series with VEEV TC83 came out at 91.1 ± 5.4%. In addition, the “SI, selectivity index (CC50/EC50)” value in series [2] is given as >20.1. Also, the EC50 in series [2] (setting [7]) was determined as 5 ± 0.7 µM.

On to `CN(C)c1ccc([C@H]2C[C@@]3(C)[C@@H](CC[C@@]3(O)C#CC(F)(F)F)[C@@H]3CCC4=CC(=O)CCC4=C32)cc1` [Compound 9, Trifluoromethylmifepristone], for which the CC50 in the series “in vitro” is > 100 µM. Besides, in series [2], the “detectable antiviral (anti-VEEV) activity, in words” value (“detectable antiviral” for short) is reported as “did not significantly alter the activity of the analogue from 1”. Besides, in series [2] (setting [7]), the EC50 amounted to 17.8 ± 1.7 µM.

Consider `CC#C[C@]1(O)CC[C@H]2[C@@H]3CCC4=CC(=O)CCC4=C3[C@@H](c3ccc(N(C)C)cc3)C[C@@]21C` [Compound 1, mifepristone, reference compound], for which the “nuclear accumulation of CP in infected cells (Fn/c)” value in series [3] is given as “reduced the nuclear accumulation of CP”. The CC50 in the series “in vitro” was 165 µM; in the series with Vero cells [4], > 100 µM. In the series with VEEV TC83, the inhibition at 10 µM came to 93.7 ± 19.6%. Further, in series [1], the inhibition at 200 µM was ~30%. Moreover, the EC50 was 20 µM in series [5], 19.9 ± 2.7 µM in series [2] (setting [7]) and 19.9 ± 2.7 µM in series [2] (setting [8]).

`CN(C)c1ccc([C@H]2C[C@@]3(C)[C@@H](CC[C@@]3(O)/C=C\CO)[C@@H]3CCC4=CC(=O)CCC4=C32)cc1` [Compound 13, Lilopristone, reference compound]: the CC50 in “in vitro” was > 100 µM. In series [2], the “detectable antiviral” value is reported as “abolished any detectable antiviral activity”. The EC50 in series [2] (setting [9]) is > 100 µM.

Turning to `CN(C)c1ccc([C@H]2C[C@@]3(C)[C@@H](CC[C@@]3(O)C#Cc3ccccc3)[C@@H]3CCC4=CC(=O)CCC4=C32)cc1` [Compound 38], the CC50 in “in vitro” was > 100 µM. Moreover, the inhibition at 10 µM with VEEV TC83 came to 69.7 ± 15.4%. Further, the “SI, selectivity index (CC50/EC50)” value in series [2] was >11.82 and 8.5 ± 1.7 >100 >11.8. The EC50 in series [2] (setting [7]) stood at 8.46 ± 1.7 µM; in series [2] (setting [8]), 8.5 µM.

With `CN(C)c1cccc([C@H]2C[C@@]3(C)[C@@H](CC[C@@]3(O)C#C[Si](C)(C)C)[C@@H]3CCC4=CC(=O)CCC4=C32)c1` [Compound 54], the CC50 in “in vitro” was > 100 µM. Besides, in the series on VEEV TC83, the inhibition at 10 µM was determined as 94.1 ± 7.1%. Moreover, in series [2], the “SI, selectivity index (CC50/EC50)” value was >16.7. Also, the EC50 in series [2] (setting [7]) stood at 6 ± 1.1 µM.

With `CC#C[C@]1(O)CC[C@H]2[C@@H]3CCC4=CC(=O)CCC4=C3[C@@H](c3ccc(NC)cc3)C[C@@]21C` [Compound 6, Desmethyl-mifepristone, reference compound], the “detectable antiviral” value in series [2] is on record as “eliminated any detectable antiviral activity”.

Consider `CN(C)c1ccc([C@H]2C[C@@]3(C)[C@@H](CC[C@@]3(O)C#C[Si](C)(C)C)[C@@H]3CC[C@@]4(O)CC5(CCC4=C32)OCCO5)cc1` [Compound 30], for which the CC50 in the series “in vitro” was > 100 µM. Also, in the series on VEEV TC83, the inhibition at 10 µM turned out to be 88.4 ± 4.8%. In addition, the “SI, selectivity index (CC50/EC50)” value in series [2] is given as >9.0. Further, the EC50 in series [2] (setting [7]) stood at 11.1 ± 1.9 µM.

As for `C/C=C\[C@]1(O)CC[C@H]2[C@@H]3CCC4=CC(=O)CCC4=C3[C@@H](c3ccc(N(C)C)cc3)C[C@@]21C` [Compound 7, Aglepristone, reference compound], the CC50 in the series with Vero cells [6] is > 100 µM. For the same compound, the EC50 in series [2] (setting [8]) stood at 25.3 µM.

As for `CC(C)[Si](C#C[C@]1(O)CC[C@H]2[C@@H]3CCC4=CC(=O)CCC4=C3[C@@H](c3ccc(N(C)C)cc3)C[C@@]21C)(C(C)C)C(C)C` [Compound 35], the CC50 in the series “in vitro” was > 100 µM. The EC50 in series [2] (setting [7]) came to 16.3 ± 4.7 µM; in series [2] (setting [8]) it was 16.3 µM.

Regarding `CN(C)c1ccc([C@H]2C[C@@]3(C)[C@@H](CC[C@@]3(O)C#Cc3ccccc3)[C@@H]3CC[C@@]4(O)CC5(CCC4=C32)OCCO5)cc1` [Compound 36], the CC50 in the series “in vitro” is > 100 µM. Also, in the series on VEEV TC83, the inhibition at 10 µM was 53.9 ± 18.8%. The “SI, selectivity index (CC50/EC50)” value in series [2] was 7.2 ± 2.3 >100 >14.0. In series [2] (setting [7]), the EC50 stood at 7.2 µM.

For `CC(=O)O[C@]1(C(C)=O)CC[C@H]2[C@@H]3CCC4=CC(=O)CCC4=C3[C@@H](c3ccc(N(C)C)cc3)C[C@@]21C` [Compound 21, Ulipristal Acetate, reference compound], the CC50 in “in vitro” is > 100 µM. In series [2], the “SI, selectivity index (CC50/EC50)” value is listed as >8.67. For the same compound, the EC50 is 11.5 µM in series [2] (setting [7]) and 11.5 ± 7 µM in series [2] (setting [8]).

With `CN(C)c1ccc([C@H]2C[C@@]3(C)[C@@H](CC[C@@]3(O)C#C[Si](C)(C)C)[C@@H]3CCC4=CC(=O)CCC4=C32)cc1` [Compound 33], in “in vitro”, the CC50 is > 100 µM. In addition, the inhibition at 200 µM in series [1] is ~30%. The EC50 in series [2] (setting [7]) was < 10 µM; in series [2] (setting [8]), 8.49 µM and 8.5 µM.

`CN(C)c1ccc([C@H]2C[C@@]3(C)[C@@H](CC[C@@]3(O)C#CCO)[C@@H]3CCC4=CC(=O)CCC4=C32)cc1` [Compound 11]: the CC50 in “in vitro” is > 100 µM. Also, the “detectable antiviral” value in series [2] was “abolished any detectable antiviral activity”. Also, in series [2] (setting [9]), the EC50 was > 100 µM.

For `CC[Si](C#C[C@]1(O)CC[C@H]2[C@@H]3CC[C@@]4(O)CC5(CCC4=C3[C@@H](c3ccc(N(C)C)cc3)C[C@@]21C)OCCO5)(CC)CC` [Compound 31], the CC50 in the series “in vitro” is > 100 µM. The inhibition at 10 µM in the series with VEEV TC83 stood at 93.9 ± 3.2%. In addition, in series [2], the “SI, selectivity index (CC50/EC50)” value is given as 4.7 ± 0.5 >100 >21.5. The EC50 in series [2] (setting [7]) came out at 4.7 µM.
